From patent US20150374676A1, “HELICASE-PRIMASE INHIBITORS FOR USE IN A METHOD OF TREATING ALZHEIMER'S DISEASE” (AICURIS GMBH & CO. KG, priority 2013, published 2015)

Test: fraction unbound in murine plasma
Format: in vitro ADME
Settings: mouse

CS(=O)(=O)O.Cc1nc(N(C)C(=O)Cc2ccc(-c3ccccn3)cc2)sc1S(N)(=O)=O [mono mesylate monohydrate salt, N-[5-(aminosulfonyl)-4-methyl-1,3-thiazol-2-yl]-N-methyl-2-[4-(2-pyridinyl)-phenyl]acetamide mono methanesulfonic acid monohydrate]
fraction unbound: 0.028
